Test results: patent US20130123215A1, “2,5-DIOXOIMIDAZOLIDIN-1-YL-3-PHENYLUREA DERIVATIVES AS FORMYL PEPTIDE RECEPTOR LIKE-1 (FPRL-1) RECEPTOR MODULATORS” (ALLERGAN, INC., priority 2011, published 2013)
Where “and” joins values, the source holds several entries; their conditions need not be identical. Identical values can stand only once.

Biological target: T1, FPRL-1 (Homo sapiens, UniProt P25090)
T1 construct: expressed in transfected cells; host or cells: CHO-Gα16 cells stably expressing FPRL1
T1 sequence (P25090 1-351): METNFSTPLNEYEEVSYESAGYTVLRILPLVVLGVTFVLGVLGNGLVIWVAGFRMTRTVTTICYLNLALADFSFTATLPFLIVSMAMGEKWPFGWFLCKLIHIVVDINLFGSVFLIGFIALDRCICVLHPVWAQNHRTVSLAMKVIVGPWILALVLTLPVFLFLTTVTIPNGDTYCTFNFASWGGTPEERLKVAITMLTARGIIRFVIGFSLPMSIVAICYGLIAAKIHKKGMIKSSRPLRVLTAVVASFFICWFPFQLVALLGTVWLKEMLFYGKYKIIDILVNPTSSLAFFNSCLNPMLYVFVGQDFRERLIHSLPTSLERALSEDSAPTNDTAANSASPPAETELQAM
Assay: FPRL-1 Ga16-CHO compound-induced calcium activity (FLIPR Tetra)
Assay type: cell-based
Conditions: CHO-Gα16 cells stably expressing FPRL1; calcium activity on FLIPR Tetra; tested at 0.61 to 10,000 nM; read-out: FPRL-1 Ga16-CHO EC50
Description: HEK-Gα16 and CHO-Gα16 cells stably expressing FPRL1 were cultured in (F12, 10% FBS, 1% PSA, 400 μg/ml geneticin and 50 μg/ml hygromycin) and HEK-Gqi5 cells stable expressing FPR1 were cultured in (DMEM high glucose, 10% FBS, 1% PSA, 400 μg/ml geneticin and 50 μg/ml hygromycin). In general, the day before the experiment, 18,000 cells/well were plated in a 384-well clear bottom poly-d-lysine coated plate. The following day the screening compound-induced calcium activity was assayed on the FLIPR^Tetra. The drug plates were prepared in 384-well microplates using the EP3 and the MultiPROBE robotic liquid handling systems. Compounds were tested at concentrations ranging from 0.61 to 10,000 nM. Results are expressed as EC50 (nM) and efficacy values.

| EC50 | SMILES |
| --- | --- |
| 17.2 nM | CC1(CCc2ccccc2C(=O)O)NC(=O)N(NC(=O)Nc2ccc(Br)cc2)C1=O (stereo not shown) [Compound 78, 2-(2-(1-(3-(4-Bromophenyl)ureido)-4-methyl-2,5-dioxoimidazolidin-4-yl)ethyl)benzoic acid] |
| 149 nM | CCC1(CC)NC(=O)N(NC(=O)Nc2ccc(Cl)c(F)c2)C1=O [Compound 19, 1-(4-Chloro-3-fluorophenyl)-3-(4,4-diethyl-2,5-dioxoimidazolidin-1-yl)urea] |
| 7.9 nM | CC1(CCc2cccs2)NC(=O)N(NC(=O)Nc2ccc(Br)cc2)C1=O (stereo not shown) [Compound 43] |
| 105 nM | CC(C)CC1(CCc2ccccc2)NC(=O)N(NC(=O)Nc2ccc(Br)cc2F)C1=O (stereo not shown) [Compound 32] |
| 193 nM | CC(C)OP(=O)(CNC(=O)CC1(C(C)C)NC(=O)N(NC(=O)Nc2ccc(Br)cc2)C1=O)OC(C)C (stereo not shown) [Compound 88, Diisopropyl((2-(1-(3-(4-bromophenyl)ureido)-4-isopropyl-2,5-dioxoimidazolidin-4-yl)acetamido)methyl)phosphonate] |
| 28.9 nM | COC(=O)c1ccccc1CCC1(C)NC(=O)N(NC(=O)Nc2ccc(Br)cc2)C1=O (stereo not shown) [Compound 59, Methyl 2-(2-(1-(3-(4-bromophenyl)ureido)-4-methyl-2,5-dioxoimidazolidin-4-yl)ethyl)benzoate] |
| 30.2 nM | CC1(CCc2ccncc2)NC(=O)N(NC(=O)Nc2ccc(Br)cc2)C1=O (stereo not shown) [Compound 54, 1-(4-Bromophenyl)-3-(4-methyl-2,5-dioxo-4-(2-(pyridin-4-yl)ethyl)imidazolidin-1-yl)urea] |
| 5.16 nM | CC(C)C1(CC(=O)NCCC(=O)O)NC(=O)N(NC(=O)Nc2ccc(Br)cc2)C1=O (stereo not shown) [Compound 93, 3-(2-(1-(3-(4-Bromophenyl)ureido)-4-isopropyl-2,5-dioxoimidazolidin-4-yl)acetamido)propanoic acid] |
| 1380 nM | CC1(CCc2ccc(Cl)cc2)NC(=O)N(NC(=O)Nc2ccc(Br)cc2F)C1=O (stereo not shown) [Compound 34] |
| 13.3 nM | CC1(CCc2ccc(O)cc2)NC(=O)N(NC(=O)Nc2ccc(Br)cc2)C1=O (stereo not shown) [Compound 42, 1-(4-Bromophenyl)-3-(4-(4-hydroxyphenethyl)-4-methyl-2,5-dioxoimidazolidin-1-yl)urea] |
| 1.5 nM and 2.07 nM | CC1(CCc2cccc(O)c2)NC(=O)N(NC(=O)Nc2ccc(Br)cc2)C1=O (stereo not shown) [Compound 52, 1-(4-Bromophenyl)-3-(4-(3-hydroxyphenethyl)-4-methyl-2,5-dioxoimidazolidin-1-yl)urea] |
| 11.1 nM | CCC1(CCc2ccccc2C(=O)O)NC(=O)N(NC(=O)Nc2ccc(Br)cc2F)C1=O (stereo not shown) [Compound 80, 2-[2-(1-{[(4-Bromo-2-fluorophenyl)carbamoyl]amino}-4-ethyl-2,5-dioxoimidazolidin-4-yl)ethyl]benzoic acid] |
| 79.1 nM | CC(C)C1(CC(=O)NCCC(=O)OC(C)(C)C)NC(=O)N(NC(=O)Nc2ccc(Br)cc2)C1=O (stereo not shown) [Compound 91, tert-Butyl 3-(2-(1-(3-(4-bromophenyl)ureido)-4-isopropyl-2,5-dioxoimidazolidin-4-yl)acetamido)propanoate] |
| 118 nM | CC1(CCc2ccc(F)cc2)NC(=O)N(NC(=O)Nc2ccc(Br)cc2F)C1=O (stereo not shown) [Compound 40, 1-(4-Bromo-2-fluorophenyl)-3-(4-(4-fluorophenethyl)-4-methyl-2,5-dioxoimidazolidin-1-yl)urea] |
| 232 nM | COc1ccc(COCCC2(C(C)C)NC(=O)N(NC(=O)Nc3ccc(Br)cc3)C2=O)cc1 (stereo not shown) [Compound 49, 1-(4-Bromophenyl)-3-(4-isopropyl-4-(2-((4-methoxybenzyl)oxy)ethyl)-2,5-dioxoimidazolidin-1-yl)urea] |
| 191 nM | O=C(Nc1ccc(Br)cc1F)NN1C(=O)NC2(CCc3ccccc3C2)C1=O (stereo not shown) [Compound 26] |
| 37.1 nM | CCC1(CC)NC(=O)N(NC(=O)Nc2ccc(SC)cc2)C1=O [Compound 8, 1-(4-Methylthiophenyl)-3-(4,4-diethyl-2,5-dioxoimidazolidin-1-yl)urea] |
| 2.9 nM | CC1(CCc2cccc(O)c2)NC(=O)N(NC(=O)Nc2ccc(Br)cc2F)C1=O (stereo not shown) [Compound 53, 1-(4-Bromo-2-fluorophenyl)-3-(4-(3-hydroxyphenethyl)-4-methyl-2,5-dioxoimidazolidin-1-yl)urea] |

| EC50 | SMILES |
| --- | --- |
| 194 nM | CCC1(CC)NC(=O)N(NC(=O)Nc2ccc(OC)cc2)C1=O [Compound 3, 1-(4-Methoxyphenyl)-3-(4,4-diethyl-2,5-dioxoimidazolidin-1-yl)urea] |
| 53.5 nM | O=C(Nc1ccc(Br)cc1)NN1C(=O)NC2(CCc3ccccc3C2)C1=O (stereo not shown) [Compound 27, 1-(4-Bromophenyl)-3-(2,5-dioxo-3′,4′-dihydro-1H,1′H-spiro[imidazolidine-4,2′-naphthalen]-1-yl)urea] |
| 39.8 nM | CC1(CCc2ccco2)NC(=O)N(NC(=O)Nc2ccc(Br)cc2F)C1=O (stereo not shown) [Compound 36] |
| 713 nM | CC(C)C1(CC(=O)O)NC(=O)N(NC(=O)Nc2ccc(Br)cc2F)C1=O (stereo not shown) [Compound 82, 2-(1-(3-(4-Bromo-2-fluorophenyl)ureido)-4-isopropyl-2,5-dioxoimidazolidin-4-yl)acetic acid] |
| 5.8 nM | CC1(CCc2ccccc2O)NC(=O)N(NC(=O)Nc2ccc(Br)cc2F)C1=O (stereo not shown) [Compound 51, 1-(4-Bromo-2-fluorophenyl)-3-(4-(2-hydroxyphenethyl)-4-methyl-2,5-dioxoimidazolidin-1-yl)urea] |
| 125 nM | CCc1ccc(NC(=O)NN2C(=O)NC(CC)(CC)C2=O)cc1 [Compound 4, 1-(4-Ethylphenyl)-3-(4,4-diethyl-2,5-dioxoimidazolidin-1-yl)urea] |
| 109 nM | CC(C)C1(CC(=O)NC(C)(C)C(=O)O)NC(=O)N(NC(=O)Nc2ccc(Br)cc2)C1=O (stereo not shown) [Compound 95, 2-(2-(1-(3-(4-Bromophenyl)ureido)-4-isopropyl-2,5-dioxoimidazolidin-4-yl)acetamido)-2-methylpropanoic acid] |
| 302 nM | CC(C)C1(CC(=O)NCC(=O)OC(C)(C)C)NC(=O)N(NC(=O)Nc2ccc(Br)cc2)C1=O (stereo not shown) [Compound 85, tert-Butyl 2-(2-(1-(3-(4-bromophenyl)ureido)-4-isopropyl-2,5-dioxoimidazolidin-4-yl)acetamido)acetate] |
| 169 nM | CCc1ccc2[nH]c(C3(C)NC(=O)N(NC(=O)Nc4ccc(Br)cc4F)C3=O)cc2c1 (stereo not shown) [Compound 65, 1-(4-Bromo-2-fluorophenyl)-3-[4-(5-ethyl-1H-indol-2-yl)-4-methyl-2,5-dioxoimidazolidin-1-yl]urea] |
| 86 nM | CC1(CCc2cccs2)NC(=O)N(NC(=O)Nc2ccc(Br)cc2F)C1=O (stereo not shown) [Compound 44] |
| 6.3 nM | CCC1(C(C)C)NC(=O)N(NC(=O)Nc2ccc(Br)cc2F)C1=O (stereo not shown) [Compound 20, 1-(4-Bromo-2-fluorophenyl)-3-(4-ethyl-4-isopropyl-2,5-dioxoimidazolidin-1-yl)urea] |
| 47 nM | O=C(Nc1ccc(Br)cc1)NN1C(=O)NC2(Cc3ccccc3C2)C1=O [Compound 13, 1-(4-Bromophenyl)-3-(2,5-dioxo-1′,3′-dihydrospiro[imidazolidine-4,2′-inden]-1-yl)urea] |
| 16.2 nM | CC(C)C1(CC(=O)NC(CO)CO)NC(=O)N(NC(=O)Nc2ccc(Br)cc2)C1=O (stereo not shown) [2-[1-{[(4-Bromophenyl)carbamoyl]amino}-2,5-dioxo-4-(propan-2-yl)imidazolidin-4-yl]-N-(1,3-dihydroxypropan-2-yl)acetamide] |
| 13.6 nM | O=C(Nc1ccc(Br)cc1)NN1C(=O)NC2(CCCCC2)C1=O [Compound 14, 1-(4-Bromophenyl)-3-(2,4-dioxo-1,3-diazaspiro[4.5]decan-3-yl)urea] |
| 2.65 nM | CC(C)C1(CO)NC(=O)N(NC(=O)Nc2ccc(Br)cc2)C1=O (stereo not shown) [Compound 74, 1-(4-Bromophenyl)-3-(4-(hydroxymethyl)-4-isopropyl-2,5-dioxoimidazolidin-1-yl)urea] |
| 3.5 nM | Cc1ccc(CCC2(C)NC(=O)N(NC(=O)Nc3ccc(Br)cc3)C2=O)o1 (stereo not shown) [Compound 46, 1-(4-Bromophenyl)-3-(4-methyl-4-(2-(5-methylfuran-2-yl)ethyl)2,5-dioxoimidazolidin-1-yl)urea] |
| 61 nM | CC1(CCc2ccccc2)NC(=O)N(NC(=O)Nc2ccc(Br)cc2F)C1=O (stereo not shown) [Compound 17, 1-(4-Bromo-2-fluorophenyl)-3-(4-methyl-2,5-dioxo-4-phenethylimidazolidin-1-yl)urea] |

Same assay, conditions: FPRL-1 Ga16-CHO EC50, CHO-Gα16 cells stably expressing FPRL1; calcium activity on FLIPR Tetra; tested at 0.61 to 10,000 nM

| SMILES | EC50 [nM] |
| --- | --- |
| CCOP(=O)(O)CNC(=O)CC1(C(C)C)NC(=O)N(NC(=O)Nc2ccc(Br)cc2)C1=O (stereo not shown) [Compound 89, Ethyl hydrogen((2-(1-(3-(4-bromophenyl)ureido)-4-isopropyl-2,5-dioxoimidazolidin-4-yl)acetamido)methyl)phosphonate] | 313 |
| CCOP(=O)(CNC(=O)CC1(C(C)C)NC(=O)N(NC(=O)Nc2ccc(Br)cc2)C1=O)OCC (stereo not shown) [Compound 86, Diethyl((2-(1-(3-(4-bromophenyl)ureido)-4-isopropyl-2,5-dioxoimidazolidin-4-yl)acetamido)methyl)phosphonate] | 272 |
